40 compounds from patent US12441679B2, “Acrylamide-substituted indane compounds and therapeutic use thereof” (Sanofi, priority 2020, dated 2025) can be followed below.

By IC50 is commonly meant the concentration that inhibits the measured activity by half. A lower IC50 goes with higher potency.

The first test deals with YAP1-TEAD and TAZ-TEAD activity (TEAD responsive promoter element). Briefly: TEAD-Luciferase Reporter Assay (8XGTIIC-Luciferase construct stably integrated in tumor cell lines). The format is cell-based, human. The settings on record: 8XGTIIC-Luciferase reporter in tumor cell lines, 48 hrs compound treatment, 10 doses 1-10000 nM. From the text:
TEAD-Luciferase Reporter Assay
Luciferase-based gene reporter assays were used, employing the TEAD responsive promoter element that are stably integrated to different human tumor cell lines in order to monitor YAP1-TEAD and TAZ-TEAD activity and to study YAP1/TAZ-TEAD activity modulation by small molecule compounds. Luciferase-based gene reporter assays employing the GAPDH promoter element and stably integrated to different human tumor cell lines are used as counter screen control cell lines.
Tumor cell lines with stable integration of the 8XGTIIC-Luciferase construct (Dupont et al., Nature 2011) or the GAPDH-Luciferase control plasmid, are seeded in culture medium in 96-well plates at a density of 8000 cells/well. Following an overnight incubation in a 37° C., 5% CO2 growth chamber, cells are treated with compounds described above at 10 doses ranging between 1 and 10000 nM for 48 hrs. After compound incubation, cells are lysed with Bright-Glo Luciferase Assay System (Promega E2620) and luciferase activity is measured using a luminescent plate reader.
The inhibitory activity of the compounds with respect to luciferase activity is given by the concentration which inhibits 50% of activity of non-treated cells. IC50s are determined with a nonlinear regression model on XLfit software analysis (IDBS, UK).
`C=CC(=O)Nc1ccc2c(c1)CCC2Nc1cccc(S(F)(F)(F)(F)F)c1` (stereo not shown) [Example 54, N-(1-((3-(pentafluoro-I6-sulfanyl)phenyl)amino)-2,3-dihydro-1H-inden-5-yl)acrylamide] gave an IC50 of 388 nM.

Staying with this test, now noted: Homo sapiens; 8XGTIIC-Luciferase reporter in tumor cell lines, 48 hrs compound treatment, 10 doses 1-10000 nM.
`C=CC(=O)Nc1ccc2c(c1)CC(NCCCF)C2` (stereo not shown) [Example 30, N-(2-((3-fluoropropyl)amino)-2,3-dihydro-1H-inden-5-yl)acrylamide] gave an IC50 of more than 10000 nM.

With `C=CC(=O)Nc1ccc2c(c1)CC(Nc1cccc(F)c1)C2` (stereo not shown) [Example 31, N-(2-((3-fluorophenyl)amino)-2,3-dihydro-1H-inden-5-yl)acrylamide], 20 nM corresponded to half-maximal inhibition (IC50).

The compound `C=CC(=O)Nc1ccc2c(c1)CC(Nc1cccc(C(F)(F)F)c1)C2` (stereo not shown) [Example 32, N-(2-((3-(trifluoromethyl)phenyl)amino)-2,3-dihydro-1H-inden-5-yl)acrylamide] yielded a concentration for half-maximal inhibition (IC50) of 64 nM.

As to `C=CC(=O)Nc1ccc2c(c1)C(OCCCC(F)(F)F)CC2` (stereo not shown) [Example 33, N-(3-(4,4,4-trifluorobutoxy)-2,3-dihydro-1H-inden-5-yl)acrylamide], half-maximal inhibition (IC50) required 170 nM.

With `C=CC(=O)Nc1ccc2c(c1)C(OCCCCF)CC2` (stereo not shown) [Example 34, N-(3-(4-fluorobutoxy)-2,3-dihydro-1H-inden-5-yl)acrylamide], it took 2530 nM to reach half-maximal inhibition (IC50).

Take `C=CC(=O)Nc1ccc2c(c1)C(OC1CCC(F)(F)CC1)CC2` (stereo not shown) [Example 35, N-(3-((4,4-difluorocyclohexyl)oxy)-2,3-dihydro-1H-inden-5-yl)acrylamide]: the midpoint of inhibition, the IC50, lay at 583 nM.

Compound `C=CC(=O)Nc1ccc2c(c1)C(Oc1ccc(C(F)(F)F)cc1)CC2` (stereo not shown) [Example 37, N-(3-(4-(trifluoromethyl)phenoxy)-2,3-dihydro-1H-inden-5-yl)acrylamide] registered a half-inhibitory concentration (IC50) of 24 nM.

In the case of `C=CC(=O)Nc1ccc2c(c1)C(Oc1ccccc1)CC2` (stereo not shown) [Example 38, N-(3-phenoxy-2,3-dihydro-1H-inden-5-yl)acrylamide], half-maximal inhibition (IC50) was put at 74 nM.

`C=CC(=O)Nc1ccc2c(c1)C(Oc1cccc(C(F)(F)F)c1)CC2` (stereo not shown) [Example 39, N-(3-(3-(trifluoromethyl)phenoxy)-2,3-dihydro-1H-inden-5-yl)acrylamide] registered an IC50 of 53 nM.

`C=CC(=O)Nc1ccc2c(c1)C(Oc1ccc(F)c(F)c1)CC2` (stereo not shown) [Example 40, N-(3-(3,4-difluorophenoxy)-2,3-dihydro-1H-inden-5-yl)acrylamide] gave an IC50 of 15 nM.

As for `C=CC(=O)Nc1ccc2c(c1)C(Oc1cccc(F)c1)CC2` (stereo not shown) [Example 41, N-(3-(3-fluorophenoxy)-2,3-dihydro-1H-inden-5-yl)acrylamide], half-maximal inhibition (IC50) was put at 87 nM.

Consider `C=CC(=O)Nc1ccc2c(c1)C(Oc1ccc(F)cc1)CC2` (stereo not shown) [Example 42, N-(3-(4-fluorophenoxy)-2,3-dihydro-1H-inden-5-yl)acrylamide], for which half-maximal inhibition (IC50) was put at 29 nM.

With `C=CC(=O)Nc1ccc2c(c1)C(Oc1cc(F)cc(F)c1)CC2` (stereo not shown) [Example 43, N-(3-(3,5-difluorophenoxy)-2,3-dihydro-1H-inden-5-yl)acrylamide], the IC50 worked out at 140 nM.

As to `C=CC(=O)Nc1ccc2c(c1)C(Oc1ccc(F)cc1F)CC2` (stereo not shown) [Example 44, N-(3-(2,4-difluorophenoxy)-2,3-dihydro-1H-inden-5-yl)acrylamide], the IC50 was 38 nM.

Turning to `C=CC(=O)Nc1ccc2c(c1)CCC2Oc1cccc(C(F)(F)F)c1` (stereo not shown) [Example 45, N-(1-(3-(trifluoromethyl)phenoxy)-2,3-dihydro-1H-inden-5-yl)acrylamide], 12 nM corresponded to half-maximal inhibition (IC50).

The compound `C=CC(=O)Nc1ccc2c(c1)CCC2Oc1cccc(OC(F)(F)F)c1` (stereo not shown) [Example 46, N-(1-(3-(trifluoromethoxy)phenoxy)-2,3-dihydro-1H-inden-5-yl)acrylamide] returned an IC50 of 4560 nM.

On to `C=CC(=O)Nc1ccc2c(c1)C(Oc1cccc(C(=O)OC)c1)CC2` (stereo not shown) [Example 47, methyl 3-[6-(prop-2-enoylamino)-2,3-dihydro-1H-inden-1-yl]oxybenzoate], for which the IC50 is 4350 nM.

Compound `C=CC(=O)Nc1ccc2c(c1)CC(Nc1ccc(C(F)(F)F)cc1)C2` (stereo not shown) [Example 52, N-[2-[4-(trifluoromethyl)anilino]-2,3-dihydro-1H-inden-5-yl]acrylamide] yielded an IC50 of 2820 nM.

The compound `C=CC(=O)Nc1ccc2c(c1)C(Nc1cc(F)cc(F)c1)CC2` (stereo not shown) [Example 53, N-(3-((3,5-difluorophenyl)amino)-2,3-dihydro-1H-inden-5-yl)acrylamide] returned an IC50 of 57 nM.

Compound `C=CC(=O)Nc1ccc2c(c1)CCC2Nc1cc(C(F)(F)F)ccn1` (stereo not shown) [Example 59, N-(1-((4-(trifluoromethyl)pyridin-2-yl)amino)-2,3-dihydro-1H-inden-5-yl)acrylamide 2,2,2-trifluoroacetate] registered a half-inhibitory concentration (IC50) of 60 nM.

As to `C=CC(=O)Nc1ccc2c(c1)CCC2Nc1cccc(C(F)(F)F)n1` (stereo not shown) [Example 60, N-(1-((6-(trifluoromethyl)pyridin-2-yl)amino)-2,3-dihydro-1H-inden-5-yl)acrylamide], the half-maximal inhibitory concentration (IC50) turned out to be 346 nM.

In turn, `C=CC(=O)Nc1ccc2c(c1)CCC2Nc1cncc(C(F)(F)F)c1` (stereo not shown) [Example 61, N-(1-((5-(trifluoromethyl)pyridin-3-yl)amino)-2,3-dihydro-1H-inden-5-yl)acrylamide] yielded an IC50 of 178 nM.

The compound `C=CC(=O)Nc1ccc2c(c1)CCC2N(C)c1cccc(C(F)(F)F)c1` (stereo not shown) [Example 62, N-(1-(methyl(3-(trifluoromethyl)phenyl)amino)-2,3-dihydro-1H-inden-5-yl)acrylamide] returned a half-maximal inhibitory concentration (IC50) of 70 nM.

In turn, `C=CC(=O)Nc1ccc2c(c1)CCC2N(C)c1ccccc1` (stereo not shown) [Example 63, N-(1-(methyl(phenyl)amino)-2,3-dihydro-1H-inden-5-yl)acrylamide] had an IC50 of 144 nM.

In turn, `C=CC(=O)Nc1ccc2c(c1)CCC2N(C)c1ccc(C(F)(F)F)cc1` (stereo not shown) [Example 64, N-(1-(methyl(4-(trifluoromethyl)phenyl)amino)-2,3-dihydro-1H-inden-5-yl)acrylamide] displayed an IC50 of 806 nM.

Regarding `C=CC(=O)Nc1ccc2c(c1)C(C)(C)CC2Nc1cccc(C(F)(F)F)c1` (stereo not shown) [Example 65, N-(3,3-dimethyl-1-((3-(trifluoromethyl)phenyl)amino)-2,3-dihydro-1H-inden-5-yl)acrylamide], it took 1850 nM to reach half-maximal inhibition (IC50).

Turning to `C=CC(=O)Nc1ccc2c(c1)C(C)(C)CC2Nc1ccc(C(F)(F)F)cc1` (stereo not shown) [Example 66, N-(3,3-dimethyl-1-((4-(trifluoromethyl)phenyl)amino)-2,3-dihydro-1H-inden-5-yl)acrylamide], the IC50 was determined as 863 nM.

Consider `C=CC(=O)Nc1cc(F)c2c(c1)CCC2Nc1cccc(C(F)(F)F)c1` (stereo not shown) [Example 67, N-[7-fluoro-1-[3-(trifluoromethyl)anilino]-2,3-dihydro-1H-inden-5-yl]acrylamide], for which the IC50 stood at 53 nM.

`C=CC(=O)Nc1ccc2c(c1F)CCC2Nc1ccc(C(F)(F)F)cc1` (stereo not shown) [Example 68, N-[4-fluoro-1-[4-(trifluoromethyl)anilino]-2,3-dihydro-1H-inden-5-yl]acrylamide]: the half-inhibitory concentration (IC50) is 290 nM.

`C=CC(=O)N(C)c1ccc2c(c1)CCC2Nc1ccc(C(F)(F)F)cc1` (stereo not shown) [Example 69, N-methyl-N-(1-((4-(trifluoromethyl)phenyl)amino)-2,3-dihydro-1H-inden-5-yl)acrylamide] came in with an IC50 of 349 nM.

In turn, `C=CC(=O)Nc1ccc2c(c1)C(NC1CCC(F)(F)CC1)CC2` (stereo not shown) [Example 70, N-(3-((4,4-difluorocyclohexyl)amino)-2,3-dihydro-1H-inden-5-yl)acrylamide] came in with an IC50 of 5260 nM.

Consider `C=CC(=O)Nc1ccc2c(c1)C(OC1CCC(C(F)(F)F)C1)CC2` (stereo not shown) [Example 71, N-(3-((3-(trifluoromethyl)cyclopentyl)oxy)-2,3-dihydro-1H-inden-5-yl)acrylamide], for which 820 nM corresponded to half-maximal inhibition (IC50).

Consider `C=CC(=O)Nc1ccc2c(c1)C(OCCCCC(F)(F)F)CC2` (stereo not shown) [Example 72, N-(3-((5,5,5-trifluoropentyl)oxy)-2,3-dihydro-1H-inden-5-yl)acrylamide], for which the IC50 is 861 nM.

`C=CC(=O)Nc1ccc2c(c1)C(OCCCC(F)F)CC2` (stereo not shown) [Example 73, N-(3-(4,4-difluorobutoxy)-2,3-dihydro-1H-inden-5-yl)acrylamide] returned an IC50 of 1310 nM.

In turn, `C=CC(=O)Nc1ccc2c(c1)C(OCC(F)(F)F)CC2` (stereo not shown) [Example 74, N-(3-(2,2,2-trifluoroethoxy)-2,3-dihydro-1H-inden-5-yl)acrylamide] came in with an IC50 of 3690 nM.

As to `C=CC(=O)Nc1ccc2c(c1)C(OCCC(F)(F)F)CC2` (stereo not shown) [Example 75, N-(3-(3,3,3-trifluoropropoxy)-2,3-dihydro-1H-inden-5-yl)acrylamide], half-maximal inhibition (IC50) was put at 4720 nM.

`C=CC(=O)N(C)c1ccc2c(c1)CCC2OC1CCC(C(F)(F)F)CC1` (stereo not shown) [Example 76, N-methyl-N-(1-((4-(trifluoromethyl)cyclohexyl)oxy)-2,3-dihydro-1H-inden-5-yl)acrylamide] had an IC50 of 777 nM.

Regarding `C=CC(=O)Nc1ccc2c(c1)C(Oc1ccc(Cl)cc1)CC2` (stereo not shown) [Example 77, N-(3-(4-chlorophenoxy)-2,3-dihydro-1H-inden-5-yl)acrylamide], the IC50 was 56 nM.

As for `C=CC(=O)Nc1ccc2c(c1)C(Oc1cccc(Cl)c1)CC2` (stereo not shown) [Example 78, N-(3-(3-chlorophenoxy)-2,3-dihydro-1H-inden-5-yl)acrylamide], inhibition was half-maximal at 52 nM (IC50).
